Test results reported in publication PMC3882073 (European neuropsychopharmacology : the journal of the …, 2012).
Where a name gives a salt, the structure may show the parent alone.

Experiments:
[1] = test system: AMPH-induced DA release in prefrontal cortex (PFC); assay: Amphetamine; type: in vivo, rat
[2] = test system: basal dopamine (DA) levels in prefrontal cortex (PFC); assay: Basal dopamine levels in PFC, in vivo microdialysis; set-up: species or system rat
[3] = test system: AMPH-induced DA release in striatum; assay: Amphetamine; type: in vivo, rat
[4] = test system: psychotomimetic effects of ketamine; details: ref D’Souza et al., 2012, cited from earlier work
[5] = experiments involving Org25935 and DCS

Structure (SMILES): N[C@@H]1CON=C1O [DCS, D-cycloserine]
- Effect on AMPH-induced DA release in PFC ([1]; DCS 30 mg/kg ip per day 2 weeks, 60–210 min time period): significantly reduced AMPH-induced DA release
- Effect on AMPH-induced DA release in PFC ([1]; DCS 30 mg/kg ip per day 2 weeks, in the absence of PCP): no significant effect on AMPH-induced DA release
- Effect on PCP-induced enhancement of DA release in prefrontal cortex ([1]; summary statement (abstract)): significantly reduced PCP-induced enhancement of DA release in prefrontal cortex
- Effect on basal DA levels ([2]; DCS 30 mg/kg ip per day 2 weeks): no significant effect on basal DA levels
- Effect of drug treatment on AMPH-induced DA release in striatum [3, 5]: no significant effects

Structure (SMILES): NCC(=O)O [Glycine]
- Effect on AMPH-induced DA release in PFC ([1]; in the presence of PCP, glycine 16% by diet 2 weeks, positive control, 60–210 min): significantly reduced DA release

Structure (SMILES): COc1ccc2c(c1)CC[C@H](CN(C)CC(=O)O)[C@@H]2c1ccccc1 [Org25935]
- Effect on AMPH-induced DA release in PFC ([1]; Org25935 5 mg, in the absence of PCP): no significant effect on AMPH-induced DA release
- Effect on AMPH-induced DA release in PFC ([1]; Org25935 5 mg, in the presence of PCP vs PCP alone, 60–210 min): did not significantly reduced AMPH-induced DA release
- Effect on AMPH-induced DA release in PFC ([1]; Org25935 10 mg, in the absence of PCP): no significant effect on AMPH-induced DA release
- Effect on AMPH-induced DA release in PFC ([1]; Org25935 10 mg, in the presence of PCP vs PCP alone, 60–210 min): effective
- Effect on AMPH-induced DA release in PFC ([1]; Org25935, across doses, entire 0–210 min interval): significantly inhibited AMPH-induced DA release
- Effect on basal DA levels ([2]; Org25935 5 mg/kg, across control and PCP treatment conditions, post-hoc LSD): significant increase in basal DA levels
- Effect on basal DA levels ([2]; Org25935 10 mg/kg, across control and PCP treatment conditions, post-hoc LSD): non-significant decrease
- Total symptoms induced by ketamine ([4]; acute challenge study): reversed
- Acute psychotomimetic effects of ketamine ([4]; healthy volunteers): reverse acute psychotomimetic effects of ketamine
- Safety in human use ([4]; humans): safe in human use
- Effect of drug treatment on AMPH-induced DA release in striatum [3, 5]: no significant effects

Structure (SMILES): c1ccc(C2(N3CCCCC3)CCCCC2)cc1 [PCP, Phencyclidine hydrochloride]
- Effect of PCP on AMPH-induced DA release in PFC ([1]; Org25935 experiments, PCP 15 mg/kg/d, 0–210 min after AMPH 1 mg/kg sc): significantly increased AMPH-induced DA release
- Mean basal dopamine (DA) levels in PFC ([2]; Org25935 experiments, PCP 15 mg/kg/d minipump alone (vehicle), mean ± std dev): 1.03 ± .80 (16) pg/10 μl
- Effect on basal DA levels ([2]; PCP 15 mg/kg/d, experiments involving Org25935): no significant effect on basal DA levels
- Effect of treatment on basal DA levels ([2]; R231857/60 experiments, rmANOVA): Neither PCP (F1,49=.2, p=.6) nor R231857/R231860 (F3,49=.5, p=.7) treatment significantly altered basal DA levels
- Effect of PCP on AMPH-induced DA release in striatum [3, 5]: no significant effects
- Effect on striatal DA release ([3]; summary statement (abstract)): Neither PCP nor GTIs significantly affected striatal DA release
